Measurements as given in patent publication US11285167B2, “Synergistic nutritional neuroprotective compositions for ameliorating neural dysfunction” (CELAGENEX RESEARCH (INDIA) PVT. LTD., priority 2019, dated 2022).

Columns and labels:
[1] = test system: Major depression disorder in Wistar rats; experiment: Forced swim test in Reserpine-induced major depression disorder; format: in vivo; settings: forced swim test 5 min, Reserpine 1.0 mg/kg induced, oral daily 7 days, mean ± SEM, n = 6
[2] = test system: Major depression disorder in Wistar rats; experiment: Open field test (ambulatory behavior) in Reserpine-induced major depression disorder; format: in vivo; settings: 6 minute session, Reserpine induced, oral daily 7 days, mean ± SEM, n = 6

**Q.** How did the Climbing [1] turn out when `CN(C)CCC[C@@]1(c2ccc(F)cc2)OCc2cc(C#N)ccc21` [Escitalopram, reference compound] was run?
**A.** 20.17 ± 0.87

**Q.** And the Immobility [1]?
**A.** 91.67 ± 0.80

**Q.** And the “Total time spent in active swimming” value [1]?
**A.** 208.33 ± 0.80 s

**Q.** What about the “No. of open arm entries (Open field test)” value [2] of the same molecule?
**A.** 47.83 ± 0.60
